Measured values taken from patent US6146615A, “Contrast agents for image enhancement in magnetic resonance imaging” (priority 1999, dated 2000).
“Also recorded” adds a separate entry of the source.

Experiments:
[1] = test system: mice; settings: metal chloride salts in aqueous solution, mice i.p.; cited from earlier work
[2] = test system: implanted prostatic tumors (Dunning R3327, MAT/Lu); assay: T1-weighted MRI of tumor-bearing rats: percentage enhancement of tumor; assay type: in vivo, rat (inbred Copenhagen, male)
Source text: (§1) A T1 -weighted MRI examination (SE 400/15; SISCO SIS 85, 2 T) of the iron complex of ligand XI, Fe-DESAC, in rats (inbred Copenhagen, male, ca. 250 g bw) with implanted prostatic tumors (Dunning R3327, MAT/Lu) in the thigh muscles has been performed.
Thus, differentiation of tumor from surrounding muscle was straightforward with both contrast agents.
(§2) A T1 -weighted MRI examination (SE 400/15; SISCO SIS 85, 2 T) of three of these new MR contrast agents, the Fe(III) complexes of ligands XI, XVII and XXII in rats (inbred Copenhagen, male, ca. 250 g bw) with implanted prostatic tumors (Dunning R3327, MAT/Lu) in the thigh muscles was performed.

[3] = test system: Muscle; assay: T1-weighted MRI of tumor-bearing rats: percentage enhancement of muscle; assay type: in vivo, rat (inbred Copenhagen, male); settings: 100 μmol agent/kg bw iv, muscle line below large tumor
Source text: as §1, §2

[4] = test system: liver and kidney; assay: MR imaging experiments on healthy rats: percent enhancement of liver and kidney; assay type: in vivo, rat (female Fischer 344); settings: 0.10 mmol/kg, tail vein, FIG. 1
Protocol: Animal studies were performed with a 1.5-T superconducting MR unit (Signa. GE Medical Systems) using a send-and-receive head coil containing two anesthetized female Fischer 344 rats. After a localizer image were obtained, a spin-echo pulse sequence were used with a 256×256 matrix (three signals acquired) over a 20-cm field of view with a thickness of 3 mm and a 1.5-mm intersection gap. The pulse sequence parameters were TR =300 ms and TE =20 ms. Sagittal images were collected before administration of the contrast agent, and after administration, five more images were collected. Operator defined region-of-interest (ROI) measurements were made upon the organs under study for the pre- and postcontrast images. ROI measurements were recorded for the liver and kidney. For the liver, three slices were studied and for the kidneys, a single slice through each kidney was studied.
Percent enhancement was calculated by the following equation: [formula]
Female Fischer 334 rats were used in the imaging experiments. The subjects were weighed and anesthetized with 65 mg/kg pentobarbital. The preinjection pulse sequence was performed, then the contrast agent was administered. The concentration used was 0.10 mmollkg with an injection volume of 0.5 mL used throughout, administered over a time range of approximately three minutes. […]

[5] = test system: liver and kidney; settings: over the same time period as FIG. 1; Davies et al. 1996, U.S. Pat. No. 5,494,656; cited from earlier work

For iron, which LD50 [1] is on record?
Its LD50 is 1.6 mmol/kg.

What does the source list for `O=C([O-])CN(CCN(CC(=O)[O-])CC(=O)O)CCN(CC(=O)[O-])CC(=O)O.[Gd+3]` [Gd-DTPA, gadolinium ion chelated with the ligand diethylenetriaminepentaacetic acid]?
Percentage enhancement, large, necrotic tumor, 1 hr ([2]; 100 μmol agent/kg bw iv, 1 hr post contrast): +52 ± 14%; Percentage enhancement, large, necrotic tumor, 24 hr ([2]; 100 μmol agent/kg bw iv, 24 hr post contrast): -11 ± 8%; enhancement of necrotic tumor tissue ([2]; large (almost completely necrotic) tumor, 24 hr post contrast): no such enhancement was found with Gd-DTPA; also recorded: no significant enhancement of tumor; differentiation of tumor from surrounding muscle ([2]; single iv application): straightforward; tumor enhancement, 3 hr ([2]; single iv application, 3 hr post contrast): significant tumor enhancement; Percentage enhancement, muscle (large, necrotic tumor), 1 hr ([3]; 1 hr post contrast): +10 ± 6%; Percentage enhancement, muscle (large, necrotic tumor), 24 hr ([3]; 24 hr post contrast): -4 ± 2%

With `[Mn+2]` [manganese] as the compound, how does the LD50 [1] read?
The LD50 was 1.5 mmol/kg.

For `[Gd]` [gadolinium], which LD50 [1] is on record?
The LD50 was 1.4 mmol/kg.

Which results are given for Fe(III) tris(tironate)?
liver-specificity [4]: does not show this tissue specificity; liver enhancement [5]: ≤ 15%
